From publication PMC10147923, “Pain-causing stinging nettle toxins target TMEM233 to modulate NaV1.7 function” (Nature Communications, 2023)
Several values for one entry are separate records, joined by “and”; a condition that tells them apart may be missing. Equal values may be shown once. Read-outs that look alike come from different tables or passages of the source. Positions of bridges follow the written chain, without caps; N, C: chain ends. Residues, ends and D or L forms follow the SMILES beside them.

Columns and labels:
[1] = tested on: total and TTX-s NaV current in wild-type DRG neurons; test: Persistent total NaV current, manual patch clamp, mouse DRG neurons; type: cell-based
[2] = tested on: NaV1.9; type: cell-based, mouse
[3] = target: NaV1.7 (Homo sapiens, UniProt Q15858); type: cell-based; details: ExTxA 100 nM; individual cells
[4] = tested on: hNaV1.7; type: cell-based, human
[5] = tested on: NaV currents in ND7/23 cells; test: Persistent current, ND7/23 cells; type: cell-based; details: ExTxA 1 µM; individual cells
[6] = tested on: hNaV1.7; test: Persistent current, Xenopus oocytes expressing hNaV1.7 (two-electrode voltage clamp); type: cell-based, human; details: ExTxA 1 µM
Experimental: Human NaV1.7 and TMEM233 genes cloned into pcDNA3.1 plasmid were linearized with NotI restriction enzyme and used as template for cRNA synthesis using T7 polymerase (mMessage mMachine Kit; Life Technologies). Stage V/VI oocytes were injected with 5–20 ng total RNA, then incubated at 17 °C for 1–3 days in 50% Leibovitz’s L-15 medium (Gibco), supplemented with 25 µg/mL gentamicin, 25 µg/mL streptomycin, and 2.5% fetal horse serum. Two-electrode voltage clamp (Axoclamp 900 A amplifier; Axon Instruments) were performed at room temperature in ND96 solution (in mM: 96 NaCl, 2 KCl, 1 MgCl2, 1.8 CaCl2, 5 HEPES; pH 7.4 with NaOH) with a ∼40 μL recording chamber. In experiments where ExTxA was added, solutions were supplemented with 0.05% fatty-acid free bovine serum albumin. Borosilicate glass microelectrodes had resistances of 0.2–0.8 MΩ when backfilled with 3 M KCl. Data were digitized at 20 kHz and filtered at 2 kHz using pCLAMP 11 software (Digidata 1550B; Axon Instruments).
ExTxA activity was assayed at 1 µM, analyzing the current from a 50 ms step to −10 mV every 10 s, from a holding volage of −80 mV. For all other voltage protocols, oocytes were held at −90 mV. Activation curves were obtained by measuring peak currents during steps from −100 mV to +60 mV in +10 mV increments applied every 10 s, with G/Gmax plot between −80 mV and +10 mV. […]

[7] = tested on: DRG neurons from Tmem233Cre/Cre knockout mice; test: Calcium imaging, Tmem233Cre/Cre DRG neurons; type: cell-based, mouse
Experimental: DRG from all spinal levels were isolated from male and female mice (wild-type C57BL/6 J, Tmem233^Cre/Cre, NaV1.8^Cre/Cre, NaV1.9^−/− or littermate controls) as previously described[36],[38],[39]. For Ca^2+ imaging experiments, DRG neurons were dissociated following incubation with 1% collagenase type IV (Worthington, New Jersey, USA) for 1.5 h (37 °C, 5% CO2) and 2.5% trypsin (Sigma-Aldrich, Montana, USA) for 15 min and resuspended in Dulbecco’s modified Eagle’s medium (DMEM) (Sigma-Aldrich, New South Wales, Australia) supplemented with 10% fetal bovine serum (FBS) (Thermofisher, Massachusetts, USA) and penicillin/streptomycin (Thermofisher, Massachusetts, USA). Following plating in 96-well poly-D-lysine–coated culture plates, isolated neurons were incubated for 24 h at 37 °C with 5% CO2 prior to imaging.
Dissociated DRG neurons from Tmem233^Cre/Cre and C57BL/6 mice were plated on PDL-coated 96-well black-walled imaging plates and loaded with Fluo-4 AM calcium indicator (5 μM) (Invitrogen, Massachusetts, USA) for 1 h in culture medium. Cells were washed with Hanks’ balanced salt solution containing 20 mM HEPES and then transferred to the recording chamber of a Nikon Ti-E Deconvolution inverted microscope equipped with a Lumencor Spectra LED light source. Fluorescence images (excitation, 485 nm; emission, 521 nm) were acquired at 1 frame per second using a ×20 objective. Following the recording of baseline fluorescence (20 s), cells were consecutively exposed to buffer control (0.1% BSA, t = 30 s), ExTxA (10 nM, t = 60 s), and 30 mM KCl (30 mM, t = 210 s). […] Cells responding to buffer control were excluded from analysis.

[8] = tested on: hNaV1.7/TMEM233; test: Persistent current, CHO hNaV1.7/TMEM233; type: cell-based, human; details: ExTxA 1 µM; hNaV1.7/TMEM233; mean ± SEM, n = 16
[9] = tested on: TE-671 cells; details: ExTxA 1 µM + veratridine 5 µM + ouabain 20 nM

NaV1.7, sequence (Q15858 whole entry): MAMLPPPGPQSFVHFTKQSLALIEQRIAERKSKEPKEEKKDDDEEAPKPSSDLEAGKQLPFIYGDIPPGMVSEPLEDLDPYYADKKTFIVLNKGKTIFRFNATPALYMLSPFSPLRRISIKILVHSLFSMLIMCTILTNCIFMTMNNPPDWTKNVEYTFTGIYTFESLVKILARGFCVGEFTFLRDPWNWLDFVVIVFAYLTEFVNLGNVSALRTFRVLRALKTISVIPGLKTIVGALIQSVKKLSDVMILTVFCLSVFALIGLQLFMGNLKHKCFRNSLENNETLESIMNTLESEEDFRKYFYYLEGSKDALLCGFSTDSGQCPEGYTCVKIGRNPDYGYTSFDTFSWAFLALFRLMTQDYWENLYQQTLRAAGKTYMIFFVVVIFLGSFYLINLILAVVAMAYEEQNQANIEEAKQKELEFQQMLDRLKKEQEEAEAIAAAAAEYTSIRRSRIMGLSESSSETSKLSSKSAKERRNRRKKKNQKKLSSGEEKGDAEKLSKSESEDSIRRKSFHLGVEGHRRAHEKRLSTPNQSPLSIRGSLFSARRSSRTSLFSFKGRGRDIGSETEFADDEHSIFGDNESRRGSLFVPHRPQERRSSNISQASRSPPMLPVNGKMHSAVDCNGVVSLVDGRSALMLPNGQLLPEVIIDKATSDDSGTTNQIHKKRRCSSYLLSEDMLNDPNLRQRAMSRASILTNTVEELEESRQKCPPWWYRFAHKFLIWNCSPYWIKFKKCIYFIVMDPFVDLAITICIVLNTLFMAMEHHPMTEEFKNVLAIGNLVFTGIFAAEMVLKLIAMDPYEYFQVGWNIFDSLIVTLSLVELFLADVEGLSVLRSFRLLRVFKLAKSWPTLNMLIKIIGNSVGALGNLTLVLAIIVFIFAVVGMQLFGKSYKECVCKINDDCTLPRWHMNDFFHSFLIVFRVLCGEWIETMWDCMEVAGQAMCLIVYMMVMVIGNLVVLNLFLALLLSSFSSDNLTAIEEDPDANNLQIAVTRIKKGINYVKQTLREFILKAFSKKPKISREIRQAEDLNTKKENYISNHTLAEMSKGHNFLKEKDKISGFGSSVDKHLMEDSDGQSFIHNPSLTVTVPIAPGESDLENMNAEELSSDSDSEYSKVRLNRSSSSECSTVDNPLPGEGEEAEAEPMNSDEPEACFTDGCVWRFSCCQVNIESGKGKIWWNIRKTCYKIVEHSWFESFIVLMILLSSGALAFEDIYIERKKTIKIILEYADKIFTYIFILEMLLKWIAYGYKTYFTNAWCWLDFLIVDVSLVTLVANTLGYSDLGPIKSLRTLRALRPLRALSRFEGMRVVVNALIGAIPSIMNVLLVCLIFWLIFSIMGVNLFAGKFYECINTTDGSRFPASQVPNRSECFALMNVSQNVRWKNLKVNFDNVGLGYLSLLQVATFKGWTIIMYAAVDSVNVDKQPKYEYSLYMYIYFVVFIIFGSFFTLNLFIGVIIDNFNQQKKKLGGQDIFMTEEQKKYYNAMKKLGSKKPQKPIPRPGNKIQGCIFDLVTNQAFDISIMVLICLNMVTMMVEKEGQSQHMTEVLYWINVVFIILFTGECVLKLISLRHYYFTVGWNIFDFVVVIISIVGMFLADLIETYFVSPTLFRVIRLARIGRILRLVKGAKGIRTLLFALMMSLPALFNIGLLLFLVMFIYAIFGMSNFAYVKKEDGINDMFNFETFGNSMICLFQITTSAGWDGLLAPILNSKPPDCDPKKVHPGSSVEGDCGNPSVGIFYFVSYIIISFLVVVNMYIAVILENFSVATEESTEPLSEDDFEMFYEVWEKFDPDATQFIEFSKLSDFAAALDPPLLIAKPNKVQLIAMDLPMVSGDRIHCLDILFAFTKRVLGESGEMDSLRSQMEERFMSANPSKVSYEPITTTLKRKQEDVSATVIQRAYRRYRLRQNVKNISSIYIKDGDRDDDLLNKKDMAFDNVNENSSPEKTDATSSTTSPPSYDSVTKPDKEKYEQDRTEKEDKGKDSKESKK
NaV1.7, sequence (Q07699 19-218, further chain): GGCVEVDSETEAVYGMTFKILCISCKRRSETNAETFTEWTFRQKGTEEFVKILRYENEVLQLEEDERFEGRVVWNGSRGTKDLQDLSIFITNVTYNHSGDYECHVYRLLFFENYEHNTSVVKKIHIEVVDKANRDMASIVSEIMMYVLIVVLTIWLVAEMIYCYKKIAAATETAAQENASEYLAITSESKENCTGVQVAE

CC[C@H](C)[C@@H]1NC(=O)[C@H](CCCNC(=N)N)NC(=O)[C@H](Cc2ccccc2)NC(=O)[C@H](CC(C)C)NC(=O)[C@H](CO)NC(=O)[C@@H]2CSSC[C@@H]3NC(=O)[C@H]([C@@H](C)O)NC(=O)[C@H](CSSC[C@H](NC(=O)[C@H](CCCNC(=N)N)NC(=O)[C@@H]4CCCN4C(=O)[C@@H](N)CC(C)C)C(=O)N[C@@H](CC(=O)O)C(=O)N[C@@H](CO)C(=O)N4CCC[C@H]4C(=O)N[C@@H](Cc4ccccc4)C(=O)N2)NC(=O)[C@H](CCCCN)NC(=O)[C@H](CC(=O)O)NC(=O)CNC(=O)[C@H](CSSC[C@@H](C(=O)N[C@H](C(=O)N2CCC[C@H]2C(=O)N[C@@H](CC(=O)O)C(=O)N[C@H](C(=O)O)C(C)C)C(C)C)NC(=O)[C@H](CC(C)C)NC(=O)CNC(=O)[C@H](Cc2ccccc2)NC(=O)[C@H]([C@@H](C)CC)NC(=O)[C@@H]2CCCN2C(=O)[C@H](CC(C)C)NC(=O)[C@@H]2CCCN2C(=O)[C@H](C(C)C)NC3=O)NC(=O)[C@H](CC(C)C)NC(=O)CNC1=O [ExTxA, excelsatoxin A] (H-LPRCDSPFCSLFRIGLCGDKCTCVPLPIFGLCVPDV-OH; disulfide 4-21, 9-23, 17-32)
DRG total persistent NaV current (I40 ms/Ipeak) ([1]; ExTxA 100 nM in 0.1% BSA, depolarization to -20 mV from -90 mV, mean, n = 6): 0.513 ± 0.10 and 0.5133 | Mean Diff. of persistent current, Control vs. ExTxA ([1]; ExTxA 100 nM, Tukey's multiple comparisons): -0.4859 | DRG total persistent NaV current (I40 ms/Ipeak) ([1]; ExTxA 100 nM, individual cells, one line per cell): 0.842 and 0.3774 and 0.8283 and 0.3793 and 0.3284 and 0.3245 | DRG NaV1.9 Δ persistent current (I90 ms/Ipeak) [2]: -0.057 ± 0.028 | hiPSC-derived sensory neurons persistent current (I40 ms/Ipeak) [3]: 0.1753 and 0.2081 and 0.0959 and 0.1857 and 0.092 | persistent current, Predicted (LS) mean diff. [4]: -0.04169 | persistent current (I40 ms/Ipeak) ([4]; ExTxA 100 nM in ECS, mean ± SEM, n = 10): 0.04 ± 0.014 | persistent current (I40 ms/Ipeak) ([4]; ExTxA 100 nM in ICS, mean ± SEM, n = 10): -0.002 ± 0.004 | persistent current ([4]; ExTxA 1 µM, HEK NaV1.7/β1, individual cells): -10.167 pA and -21.3045 pA and 17.0051 pA and 11.4493 pA and -20.8771 pA and -5.293 pA and -9.443 pA and -10.0671 pA and 5.003 pA and -11.1496 pA and -2.37 pA | persistent current (I40 ms/Ipeak) ([4]; ExTxA 1 µM, individual cells): -0.00096 and -0.00393 and -0.00509 and -0.00016 and 0.00507 and -0.00078 and -0.00158 and -0.00022 and -9.8e-6 and 0.000228 and 0.002683 | persistent current (I40 ms/Ipeak) [5]: 0.0148 and -0.04643 and -0.01725 and -0.02481 and 0.06313 and -0.01347 and 0.009823 and -0.02206 and -0.05173 and 0.0293 and -0.02358 | Xenopus oocyte persistent current (I40 ms/Ipeak) ([6]; hNaV1.7 alone, mean ± SEM, n = 6): 0.081 ± 0.012 | persistent current (I40 ms/Ipeak) ([6]; individual oocytes): 0.01056 and 0.002122 and 0.005805 and 0.01324 and 0.01132 and 0.02838 and 0.05496 and 0.01837 and -0.00648 and -0.01247 and 0.02865 | ExTxA-induced DRG Ca2+ responses ([7]; ExTxA 10 nM, Tmem233Cre KO, Fluo-4, >1.5-fold increase, mean ± SEM, n = 7 wells): 22.33 ± 1.942 % neurons activated | calcium imaging response (Fig. 3f) ([7]; KO, individual values, one line each (n = 7)): 24.6269 and 21.831 and 19.2118 and 28.0374 and 12.6582 and 26.1905 | calcium imaging response (Fig. 3f), Mean ([7]; KO, mean, number of values 7, Std. Deviation 5.137, SEM 1.942): 22.33 | calcium imaging response (Fig. 3f), Median ([7]; KO, median, number of values 7): 23.77 | CHO cells persistent current (I40 ms) [8]: -2.010 ± 0.277 nA | effect of gene knockdown on ExTxA cytotoxicity [9]: prevented by the knockdown of SCN9A (the gene encoding the NaV1.7 α subunit) as well as ten other genes (RNF121, GPAA1, PIGT, CRELD1, PIGK, STT3B, TMEM233, PIGS, MMGT1, and LMAN2L), and exacerbated by knockdown of SPAG5, TMEM161B and NEDD4L
